How the values were obtained:
[1] = Cytotoxicity against human LN229 cells assessed as concentration required for induction of cell death after 24 hrs by crystal violet staining based light microscopic analysis; assay type: functional, LN-229
[2] = Solubility of the compound in ethanol; assay type: physicochemical
[3] = Solubility of the compound in isopropanol; assay type: physicochemical
[4] = Solubility of the compound in trifluoroacetic acid; assay type: physicochemical
[5] = Solubility of the compound in chloroform; assay type: physicochemical
[6] = Solubility of the compound in CHCl3/TFA; assay type: physicochemical
[7] = Solubility of the compound in DMSO/TFA; assay type: physicochemical
[8] = Solubility of the compound in DMSO; assay type: physicochemical

Row | Structure (SMILES) | Activity [1] [µg/mL] | solubility [2] | solubility [3] | further results
1 | CN1C(=O)C(C(=O)Nc2cccc(Cl)c2Cl)C(=O)N(C)C1=O | 100 | – | – | –
2 | CN1C(=O)C(C(=O)Nc2cccc(I)c2)C(=O)N(C)C1=O | 100 | – | – | –
3 | O=C1NC(=O)C(C(=O)Nc2ccc(Cl)cc2Cl)C(=O)N1 | – | Insoluble | Insoluble | –
4 | O=C1NC(=O)C(C(=O)NNC(=O)Nc2cccc(O)c2)C(=O)N1 | – | Insoluble | Insoluble | solubility [4]: Soluble; solubility [5]: Insoluble; solubility [6]: Soluble; solubility [7]: Soluble; solubility [8]: Insoluble
5 | O=C1NC(=O)C(C(=O)Nc2cccc(Br)c2)C(=O)N1 | 100 | Insoluble | Insoluble | –
6 | CN1C(=O)C(C(=O)NNC(=O)Nc2cccc(O)c2)C(=O)N(C)C1=O | – | Insoluble | Insoluble | solubility [4]: Insoluble; solubility [5]: Insoluble; solubility [6]: Insoluble; solubility [7]: Insoluble; solubility [8]: Insoluble
7 | O=C1NC(=O)C(C(=O)Nc2ccc3ccccc3c2)C(=O)N1 | 100 | – | – | –
8 | O=C1NC(=O)C(C(=O)NNC(=O)Nc2ccc(Cl)c(Cl)c2)C(=O)N1 | – | Insoluble | Insoluble | solubility [4]: Soluble; solubility [5]: Insoluble; solubility [6]: Soluble; solubility [7]: Soluble; solubility [8]: Insoluble
9 | O=C1NC(=O)N(c2ccccc2)C(=O)C1C(=O)Nc1ccc(Cl)cc1Cl (configuration not stated) | 100 | – | – | –
10 | O=C1NC(=O)N(c2ccccc2)C(=O)C1C(=O)Nc1ccc(Br)cc1 (configuration not stated) | 100 | – | – | –
11 | O=C1NC(=O)C(C(=O)NNC(=O)Nc2ccc([N+](=O)[O-])cc2)C(=O)N1 | – | Insoluble | Insoluble | solubility [4]: Soluble; solubility [5]: Insoluble; solubility [6]: Soluble; solubility [7]: Soluble; solubility [8]: Insoluble
12 | O=C1NC(=O)N(c2ccccc2)C(=O)C1C(=O)Nc1nc2ccc([N+](=O)[O-])cc2s1 (configuration not stated) | 100 | – | – | –
13 | O=C1NC(=O)C(C(=O)Nc2ccc([N+](=O)[O-])cc2)C(=O)N1 | 100 | Insoluble | Insoluble | –
14 | CN1C(=O)C(C(=O)Nc2ccc3cc4ccccc4cc3c2)C(=O)N(C)C1=O | 100 | – | – | –
15 | CN1C(=O)NC(=O)C(C(=O)Nc2ccc(Cl)cc2)C1=O (configuration not stated) | 100 | – | – | –
16 | NC(=O)c1ccc(NC(=O)C2C(=O)NC(=O)NC2=O)cc1 | – | Insoluble | Insoluble | –
17 | CN1C(=O)NC(=O)C(C(=O)NNC(=O)Nc2ccc(F)cc2)C1=O (configuration not stated) | – | Insoluble | Insoluble | solubility [4]: Insoluble; solubility [5]: Insoluble; solubility [6]: Insoluble; solubility [7]: Insoluble; solubility [8]: Insoluble
18 | O=C(NNC(=O)C1C(=O)NC(=O)N(c2ccccc2)C1=O)Nc1ccc(F)cc1 (configuration not stated) | – | Insoluble | Insoluble | solubility [4]: Insoluble; solubility [5]: Insoluble; solubility [6]: Insoluble; solubility [7]: Insoluble; solubility [8]: Insoluble
19 | O=C(NNC(=O)C1C(=O)NC(=O)N(c2ccccc2)C1=O)Nc1ccccc1 (configuration not stated) | – | Insoluble | Insoluble | solubility [4]: Insoluble; solubility [5]: Insoluble; solubility [6]: Insoluble; solubility [7]: Insoluble; solubility [8]: Insoluble
20 | Cc1ccc(NC(=O)C2C(=O)NC(=O)NC2=O)cc1C | 100 | Insoluble | Insoluble | –
21 | COc1ccc(NC(=O)C2C(=O)NC(=O)N(c3ccccc3)C2=O)cc1 (configuration not stated) | 100 | – | – | –
22 | O=C1NC(=O)N(c2ccccc2)C(=O)C1C(=O)Nc1ccc2cc3ccccc3cc2c1 (configuration not stated) | 100 | – | – | –
23 | CN1C(=O)C(C(=O)Nc2ccc([N+](=O)[O-])cc2)C(=O)N(C)C1=O | 100 | – | – | –

Row | Structure (SMILES) | Activity [1] [µg/mL] | solubility [2] | solubility [3] | further results
24 | O=C1NC(=O)C(C(=O)Nc2ccc(C(=O)O)cc2)C(=O)N1 | – | Insoluble | Insoluble | –
25 | CN1C(=O)C(C(=O)Nc2ccccc2O)C(=O)N(C)C1=O | 100 | – | – | –
26 | O=C1NC(=O)C(C(=O)Nc2ccccc2)C(=O)N1 | – | Insoluble | Insoluble | –
27 | COc1cc(NC(=O)C2C(=O)NC(=O)NC2=O)cc(OC)c1OC | 100 | Insoluble | Insoluble | –
28 | O=C1NC(=O)C(C(=O)Nc2cc(Cl)ccc2Cl)C(=O)N1 | – | Insoluble | Insoluble | –
29 | CN1C(=O)C(C(=O)NNC(=O)Nc2ccccc2)C(=O)N(C)C1=O | – | Insoluble | Insoluble | solubility [4]: Insoluble; solubility [5]: Insoluble; solubility [6]: Insoluble; solubility [7]: Insoluble; solubility [8]: Insoluble
30 | O=C(NNC(=O)C1C(=O)NC(=O)N(c2ccccc2)C1=O)Nc1cccc(O)c1 (configuration not stated) | – | Insoluble | Insoluble | solubility [4]: Insoluble; solubility [5]: Insoluble; solubility [6]: Insoluble; solubility [7]: Insoluble; solubility [8]: Insoluble
31 | O=C1NC(=O)C(C(=O)Nc2ccc(I)cc2)C(=O)N1 | – | Insoluble | Insoluble | –
32 | CN1C(=O)C(C(=O)Nc2ccc(O)cc2)C(=O)N(C)C1=O | 100 | – | – | –
33 | O=C1NC(=O)N(c2ccccc2)C(=O)C1C(=O)Nc1ccc(I)cc1 (configuration not stated) | 100 | – | – | –
34 | CN1C(=O)C(C(=O)Nc2cccc3ccccc23)C(=O)N(C)C1=O | 100 | – | – | –
35 | O=C1NC(=O)C(C(=O)NNC(=O)Nc2ccc(F)cc2)C(=O)N1 | – | Insoluble | Insoluble | solubility [4]: Soluble; solubility [5]: Insoluble; solubility [6]: Soluble; solubility [7]: Soluble; solubility [8]: Insoluble
36 | COc1ccc(NC(=O)C2C(=O)NC(=O)NC2=O)cc1 | – | Insoluble | Insoluble | –
37 | COc1ccc(NC(=O)C2C(=O)NC(=O)NC2=O)cc1OC | – | Insoluble | Insoluble | –
38 | CN1C(=O)C(C(=O)Nc2ccc3ccccc3c2)C(=O)N(C)C1=O | 100 | – | – | –
39 | O=C1NC(=O)C(C(=O)Nc2cccc(O)c2)C(=O)N1 | – | Insoluble | Insoluble | –
40 | CN1C(=O)C(C(=O)Nc2cc(Cl)ccc2Cl)C(=O)N(C)C1=O | 100 | – | – | –
41 | O=C1NC(=O)C(C(=O)Nc2cc(Cl)cc(Cl)c2)C(=O)N1 | – | Insoluble | Insoluble | –
42 | O=C1NC(=O)N(c2ccccc2)C(=O)C1C(=O)Nc1cccc2ccccc12 (configuration not stated) | 100 | – | – | –
43 | COc1ccc2nc(NC(=O)C3C(=O)NC(=O)N(c4ccccc4)C3=O)sc2c1 (configuration not stated) | 100 | – | – | –
44 | CCOC(=O)c1ccc(NC(=O)C2C(=O)NC(=O)NC2=O)cc1 | 100 | Insoluble | Insoluble | –
45 | CN1C(=O)C(C(=O)NNc2ccc([N+](=O)[O-])cc2)C(=O)N(C)C1=O | 100 | – | – | –
46 | O=C1NC(=O)C(C(=O)Nc2ccc(F)cc2)C(=O)N1 | – | Insoluble | Insoluble | –

Row | Structure (SMILES) | Activity [1] [µg/mL] | solubility [2] | solubility [3] | further results
47 | CN1C(=O)C(C(=O)Nc2ccc(Br)cc2)C(=O)N(C)C1=O | 100 | – | – | –
48 | CCOC(=O)c1ccc(NC(=O)C2C(=O)N(C)C(=O)N(C)C2=O)cc1 | 100 | – | – | –
49 | O=C1NC(=O)C(C(=O)Nc2ccc(Cl)c(Cl)c2)C(=O)N1 | – | Insoluble | Insoluble | –
50 | O=C1NC(=O)C(C(=O)Nc2cccc([N+](=O)[O-])c2)C(=O)N1 | – | Insoluble | Insoluble | –
51 | CN1C(=O)C(C(=O)Nc2cccc(Br)c2)C(=O)N(C)C1=O | 100 | – | – | –
52 | CN1C(=O)NC(=O)C(C(=O)Nc2cccc(O)c2)C1=O (configuration not stated) | 100 | – | – | –
53 | COc1ccc(NC(=O)C2C(=O)NC(=O)N(C)C2=O)cc1 (configuration not stated) | 100 | – | – | –
54 | CN1C(=O)C(C(=O)Nc2ccc(Cl)c(Cl)c2)C(=O)N(C)C1=O | 100 | – | – | –
55 | CN1C(=O)NC(=O)C(C(=O)Nc2ccc3cc4ccccc4cc3c2)C1=O (configuration not stated) | 100 | – | – | –
56 | CN1C(=O)C(C(=O)Nc2ccc(-c3ccccc3)cc2)C(=O)N(C)C1=O | 100 | – | – | –
57 | O=C1NC(=O)N(c2ccccc2)C(=O)C1C(=O)Nc1ccccc1 (configuration not stated) | 100 | – | – | –
58 | O=C1NC(=O)C(C(=O)Nc2ccc(O)cc2)C(=O)N1 | 100 | Insoluble | Insoluble | –
59 | COc1cc(NC(=O)C2C(=O)NC(=O)N(c3ccccc3)C2=O)cc(OC)c1OC (configuration not stated) | 100 | – | – | –
60 | O=C1NC(=O)C(C(=O)Nc2cccc3ccccc23)C(=O)N1 | 100 | – | – | –
61 | O=C1NC(=O)C(C(=O)Nc2ccc(Br)cc2)C(=O)N1 | – | Insoluble | Insoluble | –
62 | CN1C(=O)C(C(=O)Nc2ccc(C(=O)O)cc2)C(=O)N(C)C1=O | 100 | – | – | –
63 | CN1C(=O)C(C(=O)Nc2ccc(Cl)cc2Cl)C(=O)N(C)C1=O | 100 | – | – | –
64 | CN1C(=O)C(C(=O)Nc2ccccc2-c2ccccc2)C(=O)N(C)C1=O | 100 | – | – | –
65 | O=C(O)c1ccc(NC(=O)C2C(=O)NC(=O)N(c3ccccc3)C2=O)cc1 (configuration not stated) | 100 | – | – | –
66 | CN1C(=O)C(C(=O)Nc2cccc(O)c2)C(=O)N(C)C1=O | 100 | – | – | –
67 | O=C1NC(=O)C(C(=O)Nc2ccc3cc4ccccc4cc3c2)C(=O)N1 | 100 | – | – | –
68 | O=C1NC(=O)C(C(=O)Nc2cccc(Cl)c2Cl)C(=O)N1 | – | Insoluble | Insoluble | –
69 | O=C1NC(=O)C(C(=O)Nc2ccc(Cl)cc2)C(=O)N1 | – | Insoluble | Insoluble | –
